Data: ChEMBL document CHEMBL4834431, “Design of Dimeric Bile Acid Derivatives as Potent and Selective Human NTCP Inhibitors” (J Med Chem, 2021)

System: Hepatitis B virus
Assay: Antiviral activity against HBV infected in human HepG2-NTCP cells assessed as reduction in HBeAg secretion incubated for 24 hrs followed replacement with fresh medium and measured at day 5 post infection by ELISA
Type: functional, organism-based

| SMILES | IC50 [nM] |
| --- | --- |
| C[C@H](CCC(=O)O)[C@H]1CC[C@H]2[C@@H]3[C@@H](O)C[C@@H]4CC(NC(=O)CCCC(=O)NC5CC[C@@]6(C)[C@@H](C5)C[C@H](O)[C@@H]5[C@@H]6CC[C@]6(C)[C@@H]([C@H](C)CCC(=O)O)CC[C@@H]56)CC[C@]4(C)[C@H]3CC[C@]12C (stereo partly specified) | 3570 |
| C[C@@H]1CCC(=O)NCCCCNC(=O)CC[C@@H](C)[C@H]2CC[C@H]3[C@@H]4[C@@H](O)C[C@@H]5CC[C@@H](C[C@]5(C)[C@H]4CC[C@]23C)n2cc(nn2)CO[C@H]2CC[C@H]3C[C@H](O)[C@@H]4[C@H](CC[C@]5(C)[C@@H]1CC[C@@H]45)[C@@]3(C)C2 | 280 |
| C[C@H](CCC(=O)NCCS(=O)(=O)O)[C@H]1CC[C@H]2[C@@H]3[C@@H](O)C[C@@H]4C/C(=C5\CC[C@@]6(C)[C@@H](C5)C[C@H](O)[C@@H]5[C@@H]6CC[C@]6(C)[C@@H]([C@H](C)CCC(=O)NCCS(=O)(=O)O)CC[C@@H]56)CC[C@]4(C)[C@H]3CC[C@]12C | > 10000 |
| C[C@H](CCC(=O)O[C@@H]1CC[C@@]2(C)[C@@H](C1)C[C@H](O)[C@@H]1[C@@H]2CC[C@]2(C)[C@@H]([C@H](C)CCC(=O)O[C@@H]3CC[C@@]4(C)[C@@H](C3)C[C@H](O)[C@@H]3[C@@H]4CC[C@]4(C)[C@@H]([C@H](C)CCC(=O)NCCS(=O)(=O)O)CC[C@@H]34)CC[C@@H]12)[C@H]1CC[C@H]2[C@@H]3[C@@H](O)C[C@@H]4C[C@H](O)CC[C@]4(C)[C@H]3CC[C@]12C | 2650 |
| C[C@H](CCC(=O)O)[C@H]1CC[C@H]2[C@@H]3[C@@H](O)C[C@@H]4C[C@H](NC(=O)CCCC(=O)N[C@@H]5CC[C@@]6(C)[C@@H](C5)C[C@H](O)[C@@H]5[C@@H]6CC[C@]6(C)[C@@H]([C@H](C)CCC(=O)NCCS(=O)(=O)O)CC[C@@H]56)CC[C@]4(C)[C@H]3CC[C@]12C | 93 |
| C[C@H](CCC(=O)O)[C@H]1CC[C@H]2[C@@H]3[C@@H](O)C[C@@H]4C[C@H](OCCCCCO[C@@H]5CC[C@@]6(C)[C@@H](C5)C[C@H](O)[C@@H]5[C@@H]6CC[C@]6(C)[C@@H]([C@H](C)CCC(=O)NCCS(=O)(=O)O)CC[C@@H]56)CC[C@]4(C)[C@H]3CC[C@]12C | 935 |
| C[C@@H]1CCCOC(=O)CC[C@@H](C)[C@H]2CC[C@H]3[C@@H]4[C@@H](O)C[C@@H]5C[C@@H](CC[C@]5(C)[C@H]4CC[C@]23C)NC(=O)CCCC(=O)N[C@@H]2CC[C@@]3(C)[C@@H](C2)C[C@H](O)[C@@H]2[C@@H]3CC[C@]3(C)[C@@H]1CC[C@@H]23 | 525 |
| C[C@@H]1CCC(=O)NCCCCCNC(=O)CC[C@@H](C)[C@H]2CC[C@H]3[C@@H]4[C@@H](O)C[C@@H]5CC[C@@H](C[C@]5(C)[C@H]4CC[C@]23C)n2cc(nn2)CO[C@H]2CC[C@H]3C[C@H](O)[C@@H]4[C@H](CC[C@]5(C)[C@@H]1CC[C@@H]45)[C@@]3(C)C2 | 465 |
| C[C@@H]1CCC(=O)OCCOC(=O)CC[C@@H](C)[C@H]2CC[C@H]3[C@@H]4[C@@H](O)C[C@@H]5C[C@@H](CC[C@]5(C)[C@H]4CC[C@]23C)NC(=O)CCCC(=O)N[C@@H]2CC[C@@]3(C)[C@@H](C2)C[C@H](O)[C@@H]2[C@@H]3CC[C@]3(C)[C@@H]1CC[C@@H]23 | 185 |
| C[C@H](CCCNC(=O)CC[C@@H](C)[C@H]1CC[C@H]2[C@@H]3[C@@H](O)C[C@@H]4C[C@H](O)CC[C@]4(C)[C@H]3CC[C@]12C)[C@H]1CC[C@H]2[C@@H]3[C@@H](O)C[C@@H]4C[C@H](O)CC[C@]4(C)[C@H]3CC[C@]12C | > 10000 |
| C[C@H](CCC(=O)NCCS(=O)(=O)O)[C@H]1CC[C@H]2[C@@H]3[C@@H](O)C[C@@H]4CC(C5CC[C@@]6(C)[C@@H](C5)C[C@H](O)[C@@H]5[C@@H]6CC[C@]6(C)[C@@H]([C@H](C)CCC(=O)NCCS(=O)(=O)O)CC[C@@H]56)CC[C@]4(C)[C@H]3CC[C@]12C (stereo partly specified) | > 10000 |
| C[C@@H]1CCC(=O)NCCNC(=O)CC[C@@H](C)[C@H]2CC[C@H]3[C@@H]4[C@@H](O)C[C@@H]5C[C@H](CC[C@]5(C)[C@H]4CC[C@]23C)NC(=O)CN(C)CC(=O)N[C@@H]2CC[C@@]3(C)[C@@H](C2)C[C@H](O)[C@@H]2[C@@H]3CC[C@]3(C)[C@@H]1CC[C@@H]23 | 1210 |
| C[C@H](CCC(=O)NCCS(=O)(=O)O)[C@H]1CC[C@H]2[C@@H]3[C@@H](O)C[C@@H]4CC(NCCNC5CC[C@@]6(C)[C@@H](C5)C[C@H](O)[C@@H]5[C@@H]6CC[C@]6(C)[C@@H]([C@H](C)CCC(=O)NCCS(=O)(=O)O)CC[C@@H]56)CC[C@]4(C)[C@H]3CC[C@]12C (stereo partly specified) | 7680 |
| C[C@@H]1CCC(=O)NCCCCCCNC(=O)CC[C@@H](C)[C@H]2CC[C@H]3[C@@H]4[C@@H](O)C[C@@H]5CC[C@@H](C[C@]5(C)[C@H]4CC[C@]23C)n2cc(nn2)CO[C@H]2CC[C@H]3C[C@H](O)[C@@H]4[C@H](CC[C@]5(C)[C@@H]1CC[C@@H]45)[C@@]3(C)C2 | 210 |
| C[C@H](CCC(=O)NCCS(=O)(=O)O)[C@H]1CC[C@H]2[C@@H]3[C@@H](O)C[C@@H]4C[C@H](OC(=O)CCCCCC(=O)O[C@@H]5CC[C@@]6(C)[C@@H](C5)C[C@H](O)[C@@H]5[C@@H]6CC[C@]6(C)[C@@H]([C@H](C)CCC(=O)NCCS(=O)(=O)O)CC[C@@H]56)CC[C@]4(C)[C@H]3CC[C@]12C | 683 |
| C[C@@H]1CCC(=O)NCCCNC(=O)CC[C@@H](C)[C@H]2CC[C@H]3[C@@H]4[C@@H](O)C[C@@H]5CC[C@@H](C[C@]5(C)[C@H]4CC[C@]23C)n2cc(nn2)CO[C@H]2CC[C@H]3C[C@H](O)[C@@H]4[C@H](CC[C@]5(C)[C@@H]1CC[C@@H]45)[C@@]3(C)C2 | 178 |
